For assay [1], the target named is T1, Histamine H1 receptor (Cavia porcellus, UniProt P31389). Description: (§1) Potency against histamine H1 receptor on guinea pig ileum. Particulars: read-out: pA2 (converted). It counts as tissue-based.
Assay [2] has as its target T1, Histamine H1 receptor. Description: Inhibition of [3H]mepyramine binding with histamine H1 receptor in guinea pig cerebellum membranes after 30 min. The class given is cell membranes, Membrane.
The target in assay [3] is T1, Histamine H1 receptor. Description: Inhibition of [3H]mepyramine binding with histamine H1 receptor in guinea pig cerebellum membranes. It counts as cell membranes, Membrane.
For assay [4], the target named is Histamine H1 receptor (Cavia porcellus) (UniProt P31389). The assay is described as §1. The class given is tissue-based.
Chain of Histamine H1 receptor (Cavia porcellus) (P31389 whole entry): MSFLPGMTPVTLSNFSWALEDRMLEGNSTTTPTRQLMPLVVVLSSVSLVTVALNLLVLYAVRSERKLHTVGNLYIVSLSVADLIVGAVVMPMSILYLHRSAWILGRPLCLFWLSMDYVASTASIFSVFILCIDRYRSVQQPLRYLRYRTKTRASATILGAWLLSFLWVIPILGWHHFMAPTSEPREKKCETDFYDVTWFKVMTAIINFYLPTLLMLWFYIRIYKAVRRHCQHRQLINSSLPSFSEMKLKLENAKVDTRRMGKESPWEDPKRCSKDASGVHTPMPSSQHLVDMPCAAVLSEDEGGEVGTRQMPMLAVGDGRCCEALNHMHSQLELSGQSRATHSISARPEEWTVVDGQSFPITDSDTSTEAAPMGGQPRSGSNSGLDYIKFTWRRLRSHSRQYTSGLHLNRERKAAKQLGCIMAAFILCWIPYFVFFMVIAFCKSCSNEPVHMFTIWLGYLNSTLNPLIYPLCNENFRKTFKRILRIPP
The target of assay [5] is T1, Histamine H1 receptor. The assay is described as §1.

The values that follow come from ChEMBL document CHEMBL1128524, “The histamine H1-receptor antagonist binding site. A stereoselective pharmacophoric model based upon (semi-)rigid H1-antagonists and including a known interaction site on the receptor” (J Med Chem, 1995).

T1 sequence (P31389 whole entry): as above

As for `Cc1ccc([C@H](OCCN(C)C)c2ccccc2)cc1`, the Kb at Histamine H1 receptor [1] is 2 nM. This compound showed a Ki on Histamine H1 receptor [2] of 12.3 nM. For `Cc1ccc([C@@H](OCCN(C)C)c2ccccc2)cc1`, on Histamine H1 receptor [1], the Kb was 158 nM. For the same compound, the affinity on Histamine H1 receptor [3] corresponds to a Ki of 12.3 nM. In assay [4], `c1ccc2c(c1)Sc1ccccc1N2C1CN2CCC1CC2` (configuration not stated) showed a pED50 of 7.3. In the case of `c1ccc2c(c1)Sc1ccccc1N2CC1CN2CCC1CC2` (configuration not stated), in assay [4], the pED50 came out at 7.2. As for `NC1=NCC2c3ccccc3Cc3ccccc3N12` (configuration not stated) [EPINASTINE], at Histamine H1 receptor [2], the Ki is 1.41 nM. The compound further showed an IC50 against Histamine H1 receptor [5] of 1.58 nM. On to `CN1CCC2=C(C1)C(c1ccccc1)c1ccccc12` (configuration not stated) [PHENINDAMINE], for which, at Histamine H1 receptor [1], the Kb is 1.58 nM. The compound further showed a Ki at Histamine H1 receptor [2] of 6.31 nM. Consider `Cc1ccc(/C(=C\CN2CCCC2)c2ccccn2)cc1` [TRIPROLIDINE], for which, on Histamine H1 receptor [1], the Kb was 0.126 nM. The same compound had a Ki on Histamine H1 receptor [2] of 1.66 nM.
